These results are taken from patent US10738041B2, “Ferroportin inhibitors” (Vifor (International) AG, priority 2015, dated 2020).

Values joined by “and” are separate entries in the source; they are usually repeats but may differ in a detail not shown here. Identical values can stand only once. Counter-ions that a name gives are not always drawn. Like-named read-outs stand apart in the source and are kept apart here.

By IC50 is commonly meant the concentration at which inhibition is half-maximal. Usually EC50 stands for the concentration at which the effect is half-maximal. Read a low EC50 as an effect from little substance.

The target of assay [1] is T1, ferroportin (Fpn) (Mus musculus, UniProt Q9JHI9).
T1 construct: host or cells: J774 mouse macrophage cell line, Fe(III)-NTA induced
T1 sequence (Q9JHI9 1-570): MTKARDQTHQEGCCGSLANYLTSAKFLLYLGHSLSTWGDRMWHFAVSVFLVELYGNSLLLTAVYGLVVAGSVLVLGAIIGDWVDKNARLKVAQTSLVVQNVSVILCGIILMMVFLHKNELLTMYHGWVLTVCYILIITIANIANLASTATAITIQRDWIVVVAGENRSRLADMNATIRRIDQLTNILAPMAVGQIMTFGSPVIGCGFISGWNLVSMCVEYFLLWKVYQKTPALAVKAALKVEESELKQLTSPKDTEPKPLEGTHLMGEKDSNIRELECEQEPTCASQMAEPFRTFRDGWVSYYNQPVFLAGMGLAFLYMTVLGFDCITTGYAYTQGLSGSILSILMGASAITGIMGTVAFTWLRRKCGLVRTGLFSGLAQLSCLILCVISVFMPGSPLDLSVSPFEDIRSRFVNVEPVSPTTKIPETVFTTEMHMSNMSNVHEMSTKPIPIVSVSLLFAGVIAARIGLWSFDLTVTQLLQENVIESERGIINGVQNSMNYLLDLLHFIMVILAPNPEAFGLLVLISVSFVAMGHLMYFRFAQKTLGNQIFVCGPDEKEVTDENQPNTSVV
Kind of assay: Hepcidin Internalization Assay (J774). It counts as cell-based. To be noted: average of multiple measurements; inhibition of TMR-hepcidin (25 nM) internalization into J774 cells; read-out: J774 IC50. The procedure, abridged:
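Inhibition of fluorescent TMR-hepcidin uptake via ferroportin was imaged in fixed J774 cells after a 2 h, 37 °C co-incubation with compound dilutions; cells were pre-cultured overnight with 200 μM Fe(III)NTA. Internalized TMR signal per cell (Sum(Mean)) was fitted as log(inhibitor) vs. response for IC50, in triplicate.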

Assay [2] has as its target T2, human Fpn (Homo sapiens, UniProt Q9NP59).
T2 construct: FLAG (C); made in house; host or cells: Pichia pastoris
T2 sequence (Q9NP59 1-571): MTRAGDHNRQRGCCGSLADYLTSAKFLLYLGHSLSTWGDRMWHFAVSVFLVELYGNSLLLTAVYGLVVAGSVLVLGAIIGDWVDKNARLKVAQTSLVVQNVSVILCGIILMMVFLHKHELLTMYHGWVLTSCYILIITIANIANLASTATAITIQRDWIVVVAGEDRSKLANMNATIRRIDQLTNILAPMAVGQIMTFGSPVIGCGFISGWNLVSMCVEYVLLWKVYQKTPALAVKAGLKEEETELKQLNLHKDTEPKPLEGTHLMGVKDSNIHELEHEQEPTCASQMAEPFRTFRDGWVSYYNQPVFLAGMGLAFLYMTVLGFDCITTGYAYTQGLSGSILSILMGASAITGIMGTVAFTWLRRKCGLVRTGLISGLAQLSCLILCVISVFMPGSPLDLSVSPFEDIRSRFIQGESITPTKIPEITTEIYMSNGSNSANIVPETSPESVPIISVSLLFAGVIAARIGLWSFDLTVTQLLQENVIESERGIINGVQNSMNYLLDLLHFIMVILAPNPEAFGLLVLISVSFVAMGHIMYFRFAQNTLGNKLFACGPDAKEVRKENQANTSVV
Kind of assay: Biophysical Ferroportin-Hepcidin Binding Assay (fluorescence polarization). The following applies: average of multiple measurements; 1 μM human Fpn, 20 nM TMR-hepcidin; read-out: FP IC50. In outline:
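FP readout: a dose-dependent drop in TMR-hepcidin polarization (mP, from parallel and perpendicular emission) marked blocked binding to FLAG-tagged human Fpn purified from Pichia pastoris. Final levels were 1 μM Fpn and 20 nM TMR-hepcidin, with compound dilutions in duplicate, incubated 90 min at room temperature.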

Assay [3] has as its target T3, human Fpn-GFP fusion (Homo sapiens, UniProt Q9NP59).
T3 construct: expressed in transfected cells; host or cells: HEK-293 cell line #354 (derivative of HEK-293 Tet-ON Advanced, Clontech)
T3 sequence (Q9NP59 1-571): T2 sequence (Q9NP59 1-571)
Put plainly: Ferroportin Internalization and Degradation Assay (FACS). The class given is cell-based. To be noted: average of multiple measurements, Fpn-GFP MFI, HEK-293 cell line #354, FACS; for DC50: read-out: EC50 ferroportin internalization and degradation. The method, then: Growing HEK-293 #354 cells in doxycycline containing media induced expression of human Fpn-GFP fusion protein on the cell surface. […] Small molecular weight Fpn inhibitor compounds were tested for dose-dependent effects on the Fpn-GFP mean fluorescence intensity (MFI) on HEK-293 cell line #354, as described below. HEK #354 cells were harvested from ca. 80% confluent cultures, seeded at 0.6×10^6 (cells/ml in DMEM/F12 GlutaMAX™ medium (Invitrogen, Cat. 31331-028) containing 10% FBS (Clontech, Cat. 631106), 1% Penicillin-Streptomycin (Invitrogen, Cat. 15140-122), 200 μg/ml Hygromycin B (Invitrogen, Cat. 10687-010), Blasticidin 5 μg/ml, (Invitrogen, Cat. R210-01), 4 μg/ml doxycycline (Clontech, Cat. 631311), 50 μl per well of 384 well plates (Greiner; Cat. 781091) and grown at 37° C. with 5% CQ. After overnight incubation, 10 μl/well of dilution series of the test compounds were added in quadruplicates and plates were further incubated overnight at 37° C. with 5% CO2. Cells were washed once with FACS buffer (PBS containing 1% FBS, 2 mM EDTA and 0.05% NaN3), harvested in FACS buffer with 0.5 μg/ml propidium iodide (Sigma, Cat. P4864) and analyzed in a flow cytometer (CANTO™ II, BD Biosciences) equipped with high throughput sampler. Live HEK #354 cells were gated as propidium iodide negative population and analyzed for expression of Fpn-GFP.

Assay [4] concerns naïve WT C57BL/6 mice. Put plainly: Hypoferremia in naïve mice. To be noted: Mus musculus, po, 3 h, read-out: Serum Iron Reduction at 3 h (%). The class given is in vivo, mouse. The method, then: Female C57BL/6 mice (Janvier, France) at age of 9 weeks were fed a standard diet (Harlan Provimi Kliba 3436) and treated per os (p.o.) with compounds or the corresponding amount of vehicle at a volume of 10 ml/kg body weight. Fpn inhibitors were formulated in 0.5% methylcellulose/water or 20% cremophor EL/water and dosed p.o. in mice at 10, 30 or 100 mg/kg body weight. Three hours later, mice were pre terminally anesthetized in isoflurane chambers and blood was collected by retro-orbital bleeding. Mice were sacrificed by cervical dislocation and spleens, livers and duodena were harvested and used for biomarker analysis. All experiments have been conducted in compliance with the license approved by the responsible veterinarian authorities. Serum was isolated by centrifugation of blood into gel-containing microtainers and serum iron was determined by the MULTIGENT Iron assay (Abbott Diagnostics, 6K95). Eight mice per group were used and one-way ANOVA with Bonferroni's multiple comparison test was performed to analyze the statistical differences between the experimental groups.

[5] abbreviates: Dose 10 mg/kg p.o., naïve WT C57BL/6 mice, relative to vehicle.
Where [6] appears, read: Dose 30 mg/kg p.o., naïve WT C57BL/6 mice, relative to vehicle.
The mark [7] stands for this setting: Dose 100 mg/kg p.o., naïve WT C57BL/6 mice, relative to vehicle.

With `O=C(NCc1ccccc1)c1csc(CCNCc2nc3ccccc3[nH]2)n1` [Example 1], the IC50 worked out at 500 nM in assay [1] and 490 nM in assay [2]. The DC50 in assay [3] was determined as 4.66 µM.
Consider `O=C(NCc1ccccc1)c1csc(CCNCc2ccncn2)n1` [Example 27], for which the IC50 in assay [1] was 38400 nM. Also, the inhibition in vivo at 10 mg/kg in assay [4] (setting [5]) was 20%. Further, in assay [4] (setting [6]), the inhibition in vivo at 30 mg/kg was 30%. Also, in assay [4] (setting [7]), the inhibition in vivo at 100 mg/kg was 45%.
As to `O=C(NCc1ccccn1)c1csc(CCNCCc2nc3ccccc3[nH]2)n1` [Example 58], the IC50 in assay [1] amounted to 10 nM. Moreover, in assay [4] (setting [5]), the inhibition in vivo at 10 mg/kg came out at 20%. Besides, the inhibition in vivo at 30 mg/kg in assay [4] (setting [6]) stood at 30%. Further, the inhibition in vivo at 100 mg/kg in assay [4] (setting [7]) turned out to be 40%.
`O=C(Cn1cc(C(=O)NCc2ncccc2F)cn1)NCCc1nc2ccccc2[nH]1` [Example 117]: the IC50 stood at 9700 nM in assay [1] and 9000 nM in assay [2]. Moreover, the EC50 in assay [3] was > 25 µM and < 50 µM.
As for `O=C(NCc1ncccc1F)c1cccc(CCNCc2nc3ccccc3[nH]2)n1` [Example 133], the IC50 in assay [1] was found to be 4560 nM; in assay [2], 2500 nM. In assay [3], the DC50 was found to be 20.7 µM.
As to `O=C(NCc1ncccc1F)c1csc(CCCNc2nc3ccccc3[nH]2)n1` [Example 135], the IC50 in assay [1] was 3410 nM; in assay [2], 36900 nM. The EC50 in assay [3] is 21.2 µM.
For `O=C(NCc1ncccc1F)c1cnn(C2CN(Cc3nc4ccccc4[nH]3)C2)c1` [Example 136], the IC50 was greater than 10500 nM in assay [1] and 6850 nM in assay [2]. In addition, the EC50 in assay [3] was 17.9 µM.
In the case of `O=C(NCc1ncccc1F)c1csc(CCNCc2ccc3nc[nH]c3c2)n1` [Example 139], the IC50 amounted to 4790 nM in assay [1] and 63100 nM in assay [2]. For the same compound, the EC50 in assay [3] was > 20 µM and < 50 µM.
Take `O=C(NCc1ncccc1F)c1csc(CCNCc2cccc3nc[nH]c23)n1` [Example 140]: the IC50 is 3730 nM in assay [1] and 6900 nM in assay [2]. The EC50 in assay [3] is > 20 µM and < 50 µM.
As for `O=C(NCc1ncccc1F)c1cccc(CCNCCc2nc3ccccc3[nH]2)n1` [Example 146], the IC50 in assay [1] came out at 3110 nM; in assay [2], 1300 nM. For the same compound, the DC50 in assay [3] was found to be 25.3 µM.
As for `O=C(NCc1ncccc1F)c1cccc(CCN(CCc2nc3ccccc3[nH]2)CCc2nc3ccccc3[nH]2)n1` [Example 147], the IC50 in assay [1] is 533 nM; in assay [2] it was 560 nM. The DC50 in assay [3] amounted to 0.813 µM.
Take `O=C(NCc1ncccc1Cl)c1nc(CCNCc2nc3ccccc3[nH]2)sc1Cl` [Example 159]: in assay [1], the IC50 turned out to be 91 nM. For the same compound, the inhibition in vivo at 10 mg/kg in assay [4] (setting [5]) worked out at 4%. Moreover, the inhibition in vivo at 30 mg/kg in assay [4] (setting [6]) came to 26%. For the same compound, the inhibition in vivo at 100 mg/kg in assay [4] (setting [7]) was 60%.
As for `O=C(NCc1ncccc1F)c1csc(CCN(Cc2nc3ccccc3[nH]2)Cc2nc3ccccc3[nH]2)n1` [Example 166], the IC50 in assay [1] was determined as 1120 nM; in assay [2] it was 370 nM. In assay [3], the EC50 was > 20 µM and < 50 µM.
In the case of `O=C(NCc1ccccn1)c1coc(CCNCCc2nc3ccccc3[nH]2)n1` [Example 171], the IC50 in assay [1] turned out to be 26 nM. In addition, in assay [4] (setting [5]), the inhibition in vivo at 10 mg/kg was 10%. Further, the inhibition in vivo at 30 mg/kg in assay [4] (setting [6]) worked out at 42%. Further, the inhibition in vivo at 100 mg/kg in assay [4] (setting [7]) was determined as 61%.
For `O=C(NCC1CCCCN1)c1csc(CCNCc2nc3ccccc3[nH]2)n1` (stereo not drawn) [Example 185], the IC50 in assay [1] is 2230 nM; in assay [2], 2900 nM. Further, the DC50 in assay [3] was 14.4 µM.
On to `O=C(NCc1ncccc1F)c1csc(C2CN(CCc3nc4ccccc4[nH]3)C2)n1` [Example 193], for which the IC50 in assay [1] was 287 nM. Also, in assay [4] (setting [5]), the inhibition in vivo at 10 mg/kg came to 13%. Moreover, in assay [4] (setting [6]), the inhibition in vivo at 30 mg/kg came to 11%. Moreover, the inhibition in vivo at 100 mg/kg in assay [4] (setting [7]) worked out at 31%.
With `O=C(NCc1ncccc1F)c1csc([C@H]2[C@@H]3CN(Cc4nc5ccccc5[nH]4)C[C@@H]32)n1` [Example Compound No. 213, 2-[(1R,5S,6S)-3-(1H-1,3-Benzodiazol-2-ylmethyl)-3-azabicyclo[3.1.0]hexan-6-yl]-N-[(3-fluoropyridin-2-yl)methyl]-1,3-thiazole-4-carboxamide Trihydrochloride], the EC50 in assay [3] amounted to 4.14 µM.
Take `O=C(NCc1ncccc1F)c1cn(CCNCCc2nc3ccccc3[nH]2)nn1` [compound 277]: in assay [4], the inhibition in vivo at 10 mg/kg is 6%, the inhibition in vivo at 30 mg/kg was 21% and the inhibition in vivo at 100 mg/kg stood at 54%.
